According to ChEMBL document CHEMBL6127087 (Eur J Med Chem, 2024):
Active and inactive are the calls of the source. The rule behind the calls is not given here.

Columns and labels:
[1] = target: P2Y purinoceptor 6 (Homo sapiens, UniProt Q15077); assay: Binding affinity to P2Y6R (unknown origin) assessed as dissociation constant by SPR analysis
[2] = target: P2Y purinoceptor 1 (Homo sapiens) (UniProt P47900); assay: Antagonist activity at human P2Y1R stably expressed in HEK293 cells assessed as inhibition of ADP-induced IP3 accumulation preincubated with compound for 30 mins followed by ADP addition by ELISA; assay type: functional, cell-based
Chain of P2Y purinoceptor 1 (Homo sapiens) (P47900 whole entry): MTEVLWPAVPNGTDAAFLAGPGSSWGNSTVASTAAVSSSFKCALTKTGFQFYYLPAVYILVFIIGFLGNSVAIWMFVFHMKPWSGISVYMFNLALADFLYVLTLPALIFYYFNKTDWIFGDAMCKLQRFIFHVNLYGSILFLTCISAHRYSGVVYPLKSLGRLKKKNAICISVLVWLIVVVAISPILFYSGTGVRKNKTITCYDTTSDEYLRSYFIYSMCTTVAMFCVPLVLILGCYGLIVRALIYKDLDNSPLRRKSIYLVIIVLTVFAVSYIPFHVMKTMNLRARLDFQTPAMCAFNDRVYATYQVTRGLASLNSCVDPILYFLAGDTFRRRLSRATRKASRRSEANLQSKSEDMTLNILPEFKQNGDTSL

[3] = target: P2Y purinoceptor 2 (Homo sapiens) (UniProt P41231); assay: Antagonist activity at human P2Y2R stably expressed in HEK293 cells assessed as inhibition of UTP-induced IP3 accumulation preincubated with compound for 30 mins followed by UTP addition by ELISA; assay type: functional, cell-based
Chain of P2Y purinoceptor 2 (Homo sapiens) (P41231 whole entry): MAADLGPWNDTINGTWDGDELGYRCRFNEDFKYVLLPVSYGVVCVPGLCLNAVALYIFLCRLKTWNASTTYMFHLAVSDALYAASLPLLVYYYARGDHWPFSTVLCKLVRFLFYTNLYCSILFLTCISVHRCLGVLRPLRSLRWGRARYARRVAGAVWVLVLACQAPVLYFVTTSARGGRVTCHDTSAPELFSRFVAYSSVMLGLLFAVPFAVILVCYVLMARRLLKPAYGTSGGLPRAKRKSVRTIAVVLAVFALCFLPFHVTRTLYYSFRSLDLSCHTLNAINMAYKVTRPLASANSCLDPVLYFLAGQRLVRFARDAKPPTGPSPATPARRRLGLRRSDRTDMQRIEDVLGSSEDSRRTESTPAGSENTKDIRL

[4] = system: HEK-293T; assay: Cytotoxicity against HEK293T cells assessed as reduction in cell survival at >10 uM incubated for 12 to 24 hrs by CCK8 assay; assay type: toxicity, cell-based; details: human, time 12-24 hrs
[5] = system: HUVEC; assay: Cytotoxicity against HUVEC cells assessed as reduction in cell survival at >10 uM incubated for 12 to 24 hrs by CCK8 assay; assay type: toxicity, cell-based; details: human, time 12-24 hrs
[6] = target: Cytochrome P450 2C9 (Homo sapiens, UniProt P11712); assay: Inhibition of CYP2C9 in human liver microsomes using diclofenac as substrate preincubated for 10 mins followed by NADPH addition and measured after 10 mins by LC-MS/MS analysis; assay type: ADME, Microsome
Chain of Cytochrome P450 2C9 (P11712 whole entry): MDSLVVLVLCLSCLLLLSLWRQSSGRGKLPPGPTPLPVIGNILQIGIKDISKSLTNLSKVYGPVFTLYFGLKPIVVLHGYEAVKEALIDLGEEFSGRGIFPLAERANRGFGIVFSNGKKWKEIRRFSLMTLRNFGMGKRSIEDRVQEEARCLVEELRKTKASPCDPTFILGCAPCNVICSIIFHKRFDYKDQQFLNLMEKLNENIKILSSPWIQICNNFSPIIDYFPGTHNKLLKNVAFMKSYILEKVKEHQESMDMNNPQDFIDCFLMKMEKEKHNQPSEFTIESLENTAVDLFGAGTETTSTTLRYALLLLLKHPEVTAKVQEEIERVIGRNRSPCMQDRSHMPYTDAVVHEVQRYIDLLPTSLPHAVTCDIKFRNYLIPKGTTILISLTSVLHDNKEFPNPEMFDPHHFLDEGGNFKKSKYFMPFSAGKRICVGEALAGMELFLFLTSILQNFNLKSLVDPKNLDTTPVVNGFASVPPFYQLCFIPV

[7] = Stability in simulated intestinal fluid assessed as half-life; assay type: physicochemical
[8] = Stability in simulated gastric fluid assessed as half-life; assay type: physicochemical
[9] = Metabolic stability in human liver microsomes assessed as intrinsic clearance preincubated for 10 mins followed by NADPH addition and measured upto 60 mins by LC-MS/MS analysis; assay type: ADME, Microsome; details: time < 70 min, read-out: CLH
[10] = Metabolic stability in human liver microsomes assessed as half-life preincubated for 10 mins followed by NADPH addition and measured upto 60 mins by LC-MS/MS analysis; assay type: ADME, Microsome; details: time < 70 min
[11] = Cmax in male Sprague-Dawley rat at 10 mg/kg, iv measured after 24 hrs by LC-MS/MS analysis; assay type: ADME, organism-based; details: male, Sprague-Dawley, in vivo, read-out: Cmax
[12] = Half-life in male Sprague-Dawley rat at 10 mg/kg, iv measured after 24 hrs by LC-MS/MS analysis; assay type: ADME, organism-based; details: male, Sprague-Dawley, in vivo
[13] = Tmax in male Sprague-Dawley rat at 10 mg/kg, iv measured after 24 hrs by LC-MS/MS analysis; assay type: ADME, organism-based; details: male, Sprague-Dawley, in vivo, read-out: Tmax (converted)
[14] = AUC (0 to 24 hrs) in male Sprague-Dawley rat at 10 mg/kg, iv measured after 24 hrs by LC-MS/MS analysis; assay type: ADME, organism-based; details: in vivo
[15] = Cmax in male Sprague-Dawley rat at 20 mg/kg, po measured after 24 hrs by LC-MS/MS analysis; assay type: ADME, organism-based; details: male, Sprague-Dawley, in vivo, read-out: Cmax
[16] = AUC (0 to 24 hrs) in male Sprague-Dawley rat at 20 mg/kg, po measured after 24 hrs by LC-MS/MS analysis; assay type: ADME, organism-based; details: male, Sprague-Dawley, in vivo
[17] = system: Mus musculus; assay: Anti-inflammatory activity in LPS-induced male C57BL/6 mouse model of acute […] injury assessed as improvement in pulmonary edema by measuring reduction in wet to dry ratio of lung at 2 to 6 mg/kg, IG preadministered with compound for 7 days followed by LPS administration and measured after 24 hrs; assay type: functional, organism-based; details: dose 2-6 mg/kg, time 8.0 day
[18] = system: Mus musculus; assay: Anti-inflammatory activity in LPS-induced male C57BL/6 mouse model of acute […] injury assessed as reduction in IL-1beta level in BALF at 2 to 6 mg/kg, IG preadministered with compound for 7 days followed by LPS administration and measured after 24 hrs by ELISA; assay type: functional, organism-based; details: dose 2-6 mg/kg, time 8.0 day
[19] = system: Mus musculus; assay: Anti-inflammatory activity in LPS-induced male C57BL/6 mouse model of acute […] injury assessed as reduction in infiltration of immune cells by measuring decrease in monocytes count at 2 to 6 mg/kg, IG preadministered with compound for 7 days followed by LPS administration and measured after 24 hrs; assay type: functional, organism-based; details: dose 2-6 mg/kg, time 8.0 day
[20] = system: Mus musculus; assay: Anti-inflammatory activity in LPS-induced male C57BL/6 mouse model of acute […] injury assessed as reduction in MPO level in BALF at 2 to 6 mg/kg, IG preadministered with compound for 7 days followed by LPS administration and measured after 24 hrs by ELISA; assay type: functional, organism-based; details: dose 2-6 mg/kg, time 8.0 day
[21] = system: Mus musculus; assay: Anti-inflammatory activity in LPS-induced male C57BL/6 mouse model of acute […] injury assessed as reduction in dsDNA level in BALF at 2 to 6 mg/kg, IG preadministered with compound for 7 days followed by LPS administration and measured after 24 hrs by ELISA; assay type: functional, organism-based; details: dose 2-6 mg/kg, time 8.0 day
[22] = system: Mus musculus; assay: Anti-inflammatory activity in LPS-induced male C57BL/6 mouse model of acute […] injury assessed as reduction in tissue destruction in lung at 2 to 6 mg/kg, IG preadministered with compound for 7 days followed by LPS administration and measured after 24 hrs by H and E staining based histopathological analysis; assay type: functional, organism-based; details: dose 2-6 mg/kg, time 8.0 day
[23] = system: Mus musculus; assay: Anti-inflammatory activity in LPS-induced male C57BL/6 mouse model of acute […] injury assessed as reduction in interstitial edema in lung at 2 to 6 mg/kg, IG preadministered with compound for 7 days followed by LPS administration and measured after 24 hrs by H and E staining based histopathological analysis; assay type: functional, organism-based; details: dose 2-6 mg/kg, time 8.0 day
[24] = system: Mus musculus; assay: Anti-inflammatory activity in LPS-induced male C57BL/6 mouse model of acute […] injury assessed as absence of lesion in lung parenchyma at 2 to 6 mg/kg, IG preadministered with compound for 7 days followed by LPS administration and measured after 24 hrs by H and E staining based histopathological analysis; assay type: functional, organism-based; details: dose 2-6 mg/kg, time 8.0 day
[25] = system: Mus musculus; assay: Anti-inflammatory activity in LPS-induced male C57BL/6 mouse model of acute […] injury assessed as intact appearance of alveolar structure in lung at 2 to 6 mg/kg, IG preadministered with compound for 7 days followed by LPS administration and measured after 24 hrs by H and E staining based histopathological analysis; assay type: functional, organism-based; details: dose 2-6 mg/kg, time 8.0 day
[26] = system: Mus musculus; assay: Anti-inflammatory activity in LPS-induced male C57BL/6 mouse model of acute […] injury assessed as reduction in lung permeability by measuring tight junction associated proteins at 2 to 6 mg/kg, IG preadministered with compound for 7 days followed by LPS administration and measured after 24 hrs by immunofluorescence analysis; assay type: functional, organism-based; details: dose 2-6 mg/kg, time 8.0 day
[27] = system: Mus musculus; assay: Anti-inflammatory activity in LPS-induced male C57BL/6 mouse model of acute […] injury assessed as inhibition of CCL2 mRNA expression at 2 to 6 mg/kg, IG preadministered with compound for 7 days followed by LPS administration and measured after 24 hrs by RT-PCR analysis; assay type: functional, organism-based; details: dose 2-6 mg/kg, time 8.0 day
[28] = system: Mus musculus; assay: Anti-inflammatory activity in LPS-induced male C57BL/6 mouse model of acute […] injury assessed as inhibition of CXCL10 mRNA expression at 2 to 6 mg/kg, IG preadministered with compound for 7 days followed by LPS administration and measured after 24 hrs by RT-PCR analysis; assay type: functional, organism-based; details: dose 2-6 mg/kg, time 8.0 day
[29] = system: Mus musculus; assay: Anti-inflammatory activity in LPS-induced male C57BL/6 mouse model of acute […] injury assessed as inhibition of CCL2 release at 2 to 6 mg/kg, IG preadministered with compound for 7 days followed by LPS administration and measured after 24 hrs by ELISA; assay type: functional, organism-based; details: dose 2-6 mg/kg, time 8.0 day

Chain of P2Y purinoceptor 6 (Q15077 whole entry): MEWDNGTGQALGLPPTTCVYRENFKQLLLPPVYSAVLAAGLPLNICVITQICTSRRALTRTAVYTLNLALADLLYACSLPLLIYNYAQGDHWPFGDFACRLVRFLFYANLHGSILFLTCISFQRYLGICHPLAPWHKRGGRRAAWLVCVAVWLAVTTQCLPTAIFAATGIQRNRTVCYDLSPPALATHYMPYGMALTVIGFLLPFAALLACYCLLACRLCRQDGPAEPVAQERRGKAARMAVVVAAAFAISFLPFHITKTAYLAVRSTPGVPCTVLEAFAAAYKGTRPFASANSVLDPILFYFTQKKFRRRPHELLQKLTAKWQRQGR

O=C(O)CCC(=O)N1N=C(c2ccc[nH]2)CC1c1cnc2ccccc2c1 (centres undefined)
Kd [1]: 1.4 µM
Activity [2]: inactive
Activity [3]: inactive
Activity [4]: Non-Toxic
Activity [5]: Non-Toxic
IC50 [6]: 23.6 µM
half-life [7]: > 5 h
half-life [8]: > 50 h
microsomal CLint [9]: 18.6 µL/min/mg
half-life [10]: 3.55 h
Cmax [11]: 1410 ng/mL
half-life [12]: 1.5 h
Tmax [13]: 0.467 h
AUC [14]: 1956 ng·h/mL
Cmax [15]: 2940 ng/mL
AUC(0-t) at 24 h [16]: 2980 ng·h/mL
Activity [17]: Active
Activity [18]: Active
Activity [19]: Active
Activity [20]: Active
Activity [21]: Active
Activity [22]: Active
Activity [23]: Active
Activity [24]: Active
Activity [25]: Active
Activity [26]: Active
Activity [27]: Active
Activity [28]: Active
Activity [29]: Active
